The values that follow are results of earlier work, collected in patent US20100152180A1, “4-oxo-4,5-dihydropyrrolo[1,2-A)quinoxaline derivatives as inhibitors of poly(ADP-ribose) polymerase (PARP)” (priority 2006, published 2010).

In the data set the test system is ischemia and reperfusion of the heart or skeletal muscle. Particulars: rabbits.

In the case of `Oc1cccc2c(O)nccc12` [1,5-dihydroxyisoquinoline], the “reduction in infarct size” value (single injection 1 mg/kg) is on record as 38-48%.

For the compound `NC(=O)c1cccc(N)c1` [3-amino-benzamide], the “reduction in infarct size in the heart” value (single injection 10 mg/kg, one minute before occlusion or one minute before reperfusion) was 32-42%.
